Results reported in paper PMC8434050, “Design, Synthesis and SAR in 2,4,7-Trisubstituted Pyrido[3,2-d]Pyrimidine Series as Novel PI3K/mTOR Inhibitors” (Molecules, 2021).

Tests used:
[1] = tested on: mammary carcinoma MDA-MB231; experiment: Cytotoxic assay on MDA-MB231; format: cell-based; conditions: Homo sapiens, MDA-MB-231; 48 h of treatment, cell number by Hoechst nuclei staining, mean of triplicate
Experimental: (§1) Cell culture. Skin normal fibroblastic cells were purchased from Lonza (Basel, Switzerland), HuH7, Caco-2, MDA-MB-231 and Hacat cancer cell lines were obtained from the ECACC collection (Porton Down, UK). Cells were grown at 37 °C, 5% CO2 in ECACC recommended media: DMEM for HuH7, MDA-MB-231 and fibroblast, EMEM for CaCo-2 and Hacat. All culture media were supplemented by 10% of FBS, 1% of penicillin-streptomycin and 2 mM glutamine.
(§2) Cytotoxic assay. Chemicals were solubilized in DMSO at a concentration of 10 mM (stock solution) and diluted in culture medium to the desired final concentrations. […] Cells were plated in 96-well plates (4000 cells/well). Twenty-four hours after seeding, cells were exposed to chemicals. After 48h of treatment, cells were washed in PBS and fixed in cooled 90% ethanol/5% acetic acid for 20 min and the nuclei were stained with Hoechst 33,342 (B2261 Sigma). Image acquisition and analysis were performed using a Cellomics ArrayScan VTI/HCS Reader (ThermoScientific). The survival percentages were calculated as the percentage of cell number after compound treatment over cell number after DMSO treatment. The relative IC50 were calculated using the curve fitting XLfit 5.5.0.5 (idbs) integrated in Microsoft Excel as an add-on. The 4 Parameter Logistic Model or Sigmoidal Dose-Response Model was used (fit = (A + ((B − A)/(1 + ((C/x)^D))))).

normal human fibroblast = experiment: Cytotoxic assay on fibroblasts; format: cell-based; conditions: 48 h of treatment, cell number by Hoechst nuclei staining, mean of triplicate
Experimental: as §1, §2

mTOR = mTOR (Homo sapiens, UniProt P42345); experiment: mTOR kinase assay (LANCE Ultra kit; capillary electrophoresis assay); format: biochemical; conditions: selectivity index, IC50 mTOR / IC50 PI3Kα
Experimental: The amount of antibody bound to the peptide is directly related to its rate of phosphorylation. […] The experimental process was the following: inhibitor solution (2.5 µL) was injected in a plate followed by the addition of 2.5 µL of mTOR, and ATP/peptide (2.5 µL) solutions. After incubating for two hours at room temperature with no agitation and with the plate sealed, the kinase reaction was stopped by adding 5 μL of a solution at 32 mM EDTA. After 5 min of plate agitation, the detection solution (CR97-100, Perkin-Elmer) containing the antibody (5 μL) was added in each well to yield a final concentration of 2 nM of the antibody. The plate was sealed and incubated for the optimal time of 1h at room temperature without shaking before the assay readout at 665 nm.
The CE system used was a 1600 Hewlett Packard^3DCE (Agilent, Waldbronn, Germany) equipped with a photodiode array detection system. […]
All solutions were prepared with pure water, filtered through 0.45 µm PVDF Filter and stored at 4 °C. […] Their pH was measured with a MeterLab PHM201 Portable pH-Meter (Radiometer Analytical, Villeurbanne, France). […]

PI3Kβ = PI3Kβ (Homo sapiens, UniProt P42338); experiment: PI3K isoform kinase assay, β (CE-assay); format: biochemical; conditions: read-out: IC50 on PI3K Isoforms, β
Experimental: (§3) The CE system used was a 1600 Hewlett Packard^3DCE (Agilent, Waldbronn, Germany) equipped with a photodiode array detection system. Agilent software 3D-CE Chemstation (rev B.04.02) was used to pilot the CE system and for signal acquisition. CE analyses were performed in silica capillaries (66 cm total length, 57.5 cm effective length, 50 µm i.d.) purchased from Polymicro Technologies (Phoenix, AZ, USA). New capillaries were conditioned by 1.0 M NaOH for 30 min and water for 5 min. They were then coated by rinsing with cationic PDADMAC solution (0.2% w/v). The separation was conducted at −30 kV (reverse polarity) and at 30 °C. All rinse cycles were carried out at 4 bars. Between runs, the capillary was flushed for 1 min with water, 2 min with PDADMAC and 3 min with BGE.
(§4) All solutions were prepared with pure water, filtered through 0.45 µm PVDF Filter and stored at 4 °C. For PI3K and mTOR assays, the incubation buffer was HEPES/NaOH/MgCl2 (25 mM/8.84 mM/5 mM). Its pH was 7.2 and ionic strength was about 60 mM. […] Their pH was measured with a MeterLab PHM201 Portable pH-Meter (Radiometer Analytical, Villeurbanne, France). […]
(§5) In all enzymatic assays, after incubation, the electric field (of −30 kV) was applied to separate the ADP formed during the enzymatic reaction from the other reactants. ADP was detected at 254 nm for quantification. […]

PI3Kγ = PI3Kγ (Homo sapiens, UniProt P48736); experiment: PI3K isoform kinase assay, γ (CE-assay); format: biochemical; conditions: read-out: IC50 on PI3K Isoforms, γ
Experimental: as §3, §4, §5

PI3Kδ = PI3Kδ (Homo sapiens, UniProt O00329); experiment: PI3K isoform kinase assay, δ (CE-assay); format: biochemical; conditions: read-out: IC50 on PI3K Isoforms, δ
Experimental: as §3, §4, §5

PI3Kα = PI3Kα (Homo sapiens, UniProt P42336); experiment: PI3Kα kinase assay (Adapta TR-FRET kit; capillary electrophoresis assay); format: biochemical; conditions: for IC50: mean of a triplicate experiment, standard deviation in small letters
Chain of PI3Kα (P42336 whole entry): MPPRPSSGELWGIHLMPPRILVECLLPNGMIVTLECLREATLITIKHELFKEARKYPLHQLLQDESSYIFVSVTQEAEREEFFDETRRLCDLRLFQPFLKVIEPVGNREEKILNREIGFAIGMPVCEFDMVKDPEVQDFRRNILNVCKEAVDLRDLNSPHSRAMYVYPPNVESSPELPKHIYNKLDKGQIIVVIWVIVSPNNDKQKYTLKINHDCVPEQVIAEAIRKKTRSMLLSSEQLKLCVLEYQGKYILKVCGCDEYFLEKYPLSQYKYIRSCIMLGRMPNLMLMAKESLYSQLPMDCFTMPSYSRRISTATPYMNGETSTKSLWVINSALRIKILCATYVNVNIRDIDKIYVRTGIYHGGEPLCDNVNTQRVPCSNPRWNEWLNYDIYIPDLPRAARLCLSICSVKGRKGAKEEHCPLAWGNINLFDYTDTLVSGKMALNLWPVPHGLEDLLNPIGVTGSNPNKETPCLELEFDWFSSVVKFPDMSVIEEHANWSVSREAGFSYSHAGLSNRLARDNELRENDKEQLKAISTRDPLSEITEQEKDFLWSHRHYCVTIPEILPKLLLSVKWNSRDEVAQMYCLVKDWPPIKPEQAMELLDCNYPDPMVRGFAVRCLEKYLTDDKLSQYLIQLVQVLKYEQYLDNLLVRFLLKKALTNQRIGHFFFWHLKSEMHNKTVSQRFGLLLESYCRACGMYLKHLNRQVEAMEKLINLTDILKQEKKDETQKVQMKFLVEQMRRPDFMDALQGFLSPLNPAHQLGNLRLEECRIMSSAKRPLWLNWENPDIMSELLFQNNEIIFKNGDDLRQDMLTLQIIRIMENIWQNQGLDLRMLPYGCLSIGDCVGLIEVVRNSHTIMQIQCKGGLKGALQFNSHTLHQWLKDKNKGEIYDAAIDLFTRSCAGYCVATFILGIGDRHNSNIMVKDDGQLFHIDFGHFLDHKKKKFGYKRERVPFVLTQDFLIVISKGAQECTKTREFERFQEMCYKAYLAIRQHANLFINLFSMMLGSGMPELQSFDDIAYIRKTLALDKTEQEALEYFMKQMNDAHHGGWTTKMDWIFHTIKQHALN
Chain of PI3Kα (P27986 whole entry partner): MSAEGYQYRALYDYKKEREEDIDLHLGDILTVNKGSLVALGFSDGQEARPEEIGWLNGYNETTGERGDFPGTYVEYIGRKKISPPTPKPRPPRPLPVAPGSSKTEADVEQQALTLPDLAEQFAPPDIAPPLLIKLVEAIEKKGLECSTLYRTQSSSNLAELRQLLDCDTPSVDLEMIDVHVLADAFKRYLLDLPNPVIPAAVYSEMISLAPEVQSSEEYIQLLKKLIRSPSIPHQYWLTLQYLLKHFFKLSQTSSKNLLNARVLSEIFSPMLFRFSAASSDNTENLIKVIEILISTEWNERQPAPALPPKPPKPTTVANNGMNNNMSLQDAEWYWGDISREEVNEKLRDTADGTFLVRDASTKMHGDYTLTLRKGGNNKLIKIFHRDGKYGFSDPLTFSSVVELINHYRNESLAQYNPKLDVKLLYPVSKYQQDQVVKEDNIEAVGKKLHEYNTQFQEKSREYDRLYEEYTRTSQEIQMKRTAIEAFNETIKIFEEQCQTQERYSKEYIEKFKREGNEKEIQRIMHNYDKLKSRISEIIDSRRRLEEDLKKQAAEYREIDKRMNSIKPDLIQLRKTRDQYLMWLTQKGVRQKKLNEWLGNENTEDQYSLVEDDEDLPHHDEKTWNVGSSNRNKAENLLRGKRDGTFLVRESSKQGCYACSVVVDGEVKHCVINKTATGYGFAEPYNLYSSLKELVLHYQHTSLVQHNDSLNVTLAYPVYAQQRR

Chain of PI3Kγ (P48736 whole entry, canonical isoform): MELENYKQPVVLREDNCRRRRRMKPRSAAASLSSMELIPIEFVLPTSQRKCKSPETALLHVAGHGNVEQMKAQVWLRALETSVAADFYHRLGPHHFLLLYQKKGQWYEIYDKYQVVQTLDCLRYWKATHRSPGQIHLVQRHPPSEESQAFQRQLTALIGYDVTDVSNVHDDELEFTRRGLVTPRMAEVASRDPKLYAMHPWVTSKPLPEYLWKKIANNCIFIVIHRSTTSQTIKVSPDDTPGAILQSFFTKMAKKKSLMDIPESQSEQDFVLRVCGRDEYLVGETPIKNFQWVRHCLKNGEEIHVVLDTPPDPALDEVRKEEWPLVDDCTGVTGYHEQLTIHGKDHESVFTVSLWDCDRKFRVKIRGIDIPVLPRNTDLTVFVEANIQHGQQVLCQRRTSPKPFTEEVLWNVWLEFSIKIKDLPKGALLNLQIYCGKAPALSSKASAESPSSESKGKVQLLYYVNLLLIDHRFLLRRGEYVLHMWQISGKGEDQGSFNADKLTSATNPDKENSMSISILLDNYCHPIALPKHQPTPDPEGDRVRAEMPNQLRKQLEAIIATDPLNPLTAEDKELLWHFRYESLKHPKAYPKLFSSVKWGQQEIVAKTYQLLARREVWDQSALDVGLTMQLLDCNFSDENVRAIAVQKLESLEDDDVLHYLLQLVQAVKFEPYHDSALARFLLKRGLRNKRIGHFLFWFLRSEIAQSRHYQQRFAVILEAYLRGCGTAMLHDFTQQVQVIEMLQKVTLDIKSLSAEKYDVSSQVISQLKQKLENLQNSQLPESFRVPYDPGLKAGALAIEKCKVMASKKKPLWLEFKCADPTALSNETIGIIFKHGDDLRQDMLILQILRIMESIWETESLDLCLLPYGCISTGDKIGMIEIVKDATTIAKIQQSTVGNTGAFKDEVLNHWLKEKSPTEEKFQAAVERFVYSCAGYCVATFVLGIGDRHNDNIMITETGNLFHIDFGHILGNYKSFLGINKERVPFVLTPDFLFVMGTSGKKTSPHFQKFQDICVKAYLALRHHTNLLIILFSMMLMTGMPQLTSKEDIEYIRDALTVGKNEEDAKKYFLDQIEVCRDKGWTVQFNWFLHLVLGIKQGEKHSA
Chain of PI3Kδ (O00329 whole entry, canonical isoform): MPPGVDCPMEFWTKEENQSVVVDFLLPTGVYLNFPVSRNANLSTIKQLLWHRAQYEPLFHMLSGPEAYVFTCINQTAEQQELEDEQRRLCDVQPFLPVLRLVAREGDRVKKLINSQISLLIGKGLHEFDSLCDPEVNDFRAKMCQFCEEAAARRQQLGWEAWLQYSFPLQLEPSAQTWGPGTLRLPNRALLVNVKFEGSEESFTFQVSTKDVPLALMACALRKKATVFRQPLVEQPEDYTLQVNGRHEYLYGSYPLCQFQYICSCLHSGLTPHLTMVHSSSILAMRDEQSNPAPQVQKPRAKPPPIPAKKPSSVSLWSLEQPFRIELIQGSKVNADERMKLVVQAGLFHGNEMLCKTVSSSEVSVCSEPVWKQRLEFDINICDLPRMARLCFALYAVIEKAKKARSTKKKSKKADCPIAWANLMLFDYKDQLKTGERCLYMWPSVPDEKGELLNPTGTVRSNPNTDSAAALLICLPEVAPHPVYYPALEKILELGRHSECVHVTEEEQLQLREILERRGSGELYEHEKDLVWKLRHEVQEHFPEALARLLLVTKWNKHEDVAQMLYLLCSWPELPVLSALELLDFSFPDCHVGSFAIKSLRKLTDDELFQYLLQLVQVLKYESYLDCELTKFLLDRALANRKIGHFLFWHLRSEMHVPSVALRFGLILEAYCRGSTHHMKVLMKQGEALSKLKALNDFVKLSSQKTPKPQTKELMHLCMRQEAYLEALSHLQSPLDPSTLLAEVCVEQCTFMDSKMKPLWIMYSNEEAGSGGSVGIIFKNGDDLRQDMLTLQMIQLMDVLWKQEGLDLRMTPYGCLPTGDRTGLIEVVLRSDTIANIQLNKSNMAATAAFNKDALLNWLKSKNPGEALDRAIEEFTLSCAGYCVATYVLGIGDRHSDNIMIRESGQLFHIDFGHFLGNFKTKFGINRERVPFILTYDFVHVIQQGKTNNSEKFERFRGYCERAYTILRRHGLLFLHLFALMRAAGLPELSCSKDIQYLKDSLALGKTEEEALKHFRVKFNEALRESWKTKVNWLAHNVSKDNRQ
Chain of PI3Kδ (P27986 whole entry partner, canonical isoform): as the sequence (P27986 whole entry partner) above
Chain of PI3Kβ (P42338 whole entry, canonical isoform): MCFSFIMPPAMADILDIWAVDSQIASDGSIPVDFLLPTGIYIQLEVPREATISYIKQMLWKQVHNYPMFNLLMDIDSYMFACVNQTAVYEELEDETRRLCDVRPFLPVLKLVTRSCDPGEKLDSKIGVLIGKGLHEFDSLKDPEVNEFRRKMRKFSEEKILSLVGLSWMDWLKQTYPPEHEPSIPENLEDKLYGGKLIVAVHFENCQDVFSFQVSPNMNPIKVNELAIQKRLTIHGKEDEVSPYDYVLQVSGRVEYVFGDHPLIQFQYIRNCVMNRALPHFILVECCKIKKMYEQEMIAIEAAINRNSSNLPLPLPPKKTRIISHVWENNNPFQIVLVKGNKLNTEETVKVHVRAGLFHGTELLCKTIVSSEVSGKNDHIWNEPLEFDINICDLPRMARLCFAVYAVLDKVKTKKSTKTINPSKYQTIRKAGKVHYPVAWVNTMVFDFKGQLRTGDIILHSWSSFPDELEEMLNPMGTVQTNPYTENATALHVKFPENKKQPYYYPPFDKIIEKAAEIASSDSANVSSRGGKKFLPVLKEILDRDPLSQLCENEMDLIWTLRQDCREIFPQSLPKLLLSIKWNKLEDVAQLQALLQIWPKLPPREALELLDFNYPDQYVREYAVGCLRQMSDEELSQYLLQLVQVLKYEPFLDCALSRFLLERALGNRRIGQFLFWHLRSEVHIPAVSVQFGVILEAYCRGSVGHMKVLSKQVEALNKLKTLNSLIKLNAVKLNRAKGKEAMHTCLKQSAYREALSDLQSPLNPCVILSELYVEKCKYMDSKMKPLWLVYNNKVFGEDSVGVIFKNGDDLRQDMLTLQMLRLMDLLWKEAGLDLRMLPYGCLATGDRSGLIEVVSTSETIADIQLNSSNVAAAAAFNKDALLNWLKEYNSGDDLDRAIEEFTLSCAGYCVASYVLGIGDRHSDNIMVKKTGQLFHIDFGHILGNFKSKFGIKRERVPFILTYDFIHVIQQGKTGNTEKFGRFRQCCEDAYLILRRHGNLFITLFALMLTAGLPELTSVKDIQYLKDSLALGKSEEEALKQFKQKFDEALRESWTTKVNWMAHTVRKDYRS
Chain of PI3Kβ (P27986 whole entry partner, canonical isoform): as the sequence (P27986 whole entry partner) above

Row | SI (mTOR/PI3Kα Ratio) (mTOR) | IC50 (PI3Kβ) [nM] | IC50 (PI3Kγ) [nM] | IC50 (PI3Kδ) [nM] | fold reduction in the PI3Kα inhibition level (PI3Kα; C-7 hydroxymethyl compared with chlorine or methyl derivatives 5 and 6) [fold] | IC50 (PI3Kα) [nM] | Compound | IC50 [1] [nM] | IC50 (normal human fibroblast) [nM]
1 | – | – | – | – | – | – | Oc1cccc(-c2nc(N3CCOCC3)c3ncc(Cl)cc3n2)c1 [Compound 5, 7-Chloro-2-(3-hydroxyphenyl)-4-morpholinylpyrido[3,2-d]pyrimidine] | > 25000 | > 25000
2 | 4.6 | 450 | 5500 | 1400 | – | – | Cc1cnc2c(N3CCOCC3)nc(-c3cccc(O)c3)nc2c1 [Compound 6, 3-(7-Methyl-4-morpholinylpyrido[3,2-d]pyrimidin-2-yl)phenol] | – | –
3 | – | – | – | – | 30 | – | OCc1cnc2c(N3CCOCC3)nc(-c3cccc(O)c3)nc2c1 [Compound 15, 3-(7-(Hydroxymethyl)-4-morpholinylpyrido[3,2-d]pyrimidin-2-yl)phenol] | – | –
4 | – | – | – | – | – | – | [N-]=[N+]=NCc1cnc2c(N3CCOCC3)nc(-c3cccc(O)c3)nc2c1 [Compound 19, 3-(7-(Azidomethyl)-4-morpholinylpyrido[3,2-d]pyrimidin-2-yl)phenol] | > 25000 | > 25000
5 | – | 50 | 2000 | 1200 | – | 10 | COCc1cn(Cc2cnc3c(N4CCOCC4)nc(-c4cccc(O)c4)nc3c2)nn1 [Compound 21, 3-(7-((4-(Methoxymethyl)-1H-1.2.3-triazol-1-yl)methyl)-4-morpholinylpyrido[3,2-d]pyrimidin-2-yl)phenol] | – | > 25000
6 | 33.3 | – | – | – | – | 3 | CO/N=C/c1cnc2c(N3CCOCC3)nc(-c3cccc(O)c3)nc2c1 [Compound 32, 2-(3-Hydroxyphenyl)-4-morpholinylpyrido[3,2-d]pyrimidine-7-carbaldehyde O-methyl oxime] | > 25000 | –
